In brackets after ≈: the same amount, converted by molar mass.

Our source for the solubility and acute toxicity values is US20250250237A1, “ALKYLAMINE OR HETEROALKYLAMINE DERIVATIVES AS INHIBITORS OF NITRIC OXIDE SYNTHASES (NOS), PHARMACEUTICAL PRODUCTS THEREOF, AND METHODS THEREOF” (Gacter Inc., priority 2022, published 2025).

A short description of series [1]: Kinetic solubility assay (HPLC external standard). The note with it: PBS pH 7.4 with 2% DMSO, PBS pH 7.4, 2% DMSO, 37° C. Format: physicochemical. The protocol: This kinetic solubility assay assesses our compounds in pH 7.4 PBS, mimicking physiological conditions relevant to oral absorption and tumor targeting. Test solutions were prepared by mixing 10 μL of stock with 490 μL of PBS (pH 7.4, 2% DMSO), followed by shaking at 37° C. for 3 hours, centrifugation, and a 2× dilution with methanol. Solubility was quantified in μM using HPLC analysis on a C18 column at 35° C., with a 5-85% acetonitrile gradient and 20 μL injections, performed in duplicate.
The assay was conducted using a modified HPLC-based external standard method. For Solution Preparation, (1) Buffer: Phosphate-buffered saline (PBS) at pH 7.4; (2) Compound Stock Solutions: 10 mM concentration in DMSO; (3) Test Solutions: Mix 10 μL of the stock solution with 490 μL of PBS in a 2 mL EP tube (final 2% DMSO v/v), shake at 37° C. for 3 hours, centrifuge at 12,000 RPM for 5-10 minutes, take 100 μL of supernatant, add 100 μL methanol, mix well to use as the test solution. […] For Data Analysis, concentration calculations are based on peak area ratios, accounting for the 2× dilution factor.

Series [2] concerns mice. The settings on record: doses as low as 10 mg/kg; cited from earlier work.
Series [3] relates to rats. The note with it: doses as low as 10 mg/kg; cited from earlier work.

In general, solubility refers to the concentration that dissolves in the medium under given conditions. Low readings indicate little dissolved substance, high ones much dissolved substance. In the case of `NCC[C@@H](Oc1cc(Cl)cc2[nH]cnc12)c1ccccc1` [GT-6041, (R)-3-((6-chloro-1H-benzo[d]imidazol-4-yl)oxy)-3-phenylpropan-1-amine], in series [1], the concentration in solution (solubility at 3 h) came to 157 µM (≈ 47.3 µg/mL).
For the compound `NCC[C@@H](Oc1cc(Cl)cc2[nH]ncc12)c1ccccc1` [GT-6045], the solubility at 3 h in series [1] came to 188 µM (≈ 56.9 µg/mL).
The compound `CNCC[C@@H](Oc1cc(Cl)cc2[nH]cnc12)c1ccccc1` [GT-6058, (R)-3-((6-chloro-1H-benzo[d]imidazol-4-yl)oxy)—N-methyl-3-phenylpropan-1-amine] gave a solubility at 3 h in series [1] of 177 µM (≈ 55.8 µg/mL).
In the case of `CNCC[C@@H](Oc1cc(Cl)cc2[nH]ncc12)c1ccccc1` [GT-6059, (R)-3-((6-chloro-1H-indazol-4-yl)oxy)—N-methyl-3-phenylpropan-1-amine], the solubility at 3 h in series [1] came to 169 µM (≈ 53.5 µg/mL).
Compound `OCCNCC[C@@H](Oc1cc(Cl)cc2[nH]cnc12)c1ccccc1` [GT-6060, (R)-2-((3-((6-chloro-1H-benzo[d]imidazol-4-yl)oxy)-3-phenylpropyl)amino) ethan-1-ol] had a solubility at 3 h in series [1] of 176 µM (≈ 60.8 µg/mL).
As to `N=C(N)SCCc1ccc(CCSC(=N)N)cc1` [PBIT, S,S′-1,4-phenylene-bis(1,2-ethanediyl)bis-isothiourea], the acute toxicity entry in series [2] and in series [3] was “acutely toxic” in each case.
